From ChEMBL document CHEMBL4739717, “Methods of treating cartilage disorders through inhibition of clk and dyrk” (2020)

What was measured:
[1] = Effect on Wnt signaling pathway in human SW480 cells harbouring TCF/LEF luciferase reporter gene and SP5-Luc reporter gene incubated for 36 to 48 hrs by luminescence assay; assay type: cell-based
[2] = target: Dual specificity tyrosine-phosphorylation-regulated kinase 1A (Homo sapiens, UniProt Q13627); test: Inhibition of recombinant DYRK1A (unknown origin) using Ser/Thr 18 peptide as substrate incubated for 1 hr in presence of ATP by FRET assay
[3] = Inhibition of IL1-beta induced MMP3 expression levels in human chondrocytes assessed as MMP3 levels incubated for 2hrs followed by IL1-beta stimulation and measured after overnight incubation by LANCE assay; assay type: functional, cell-based; details: Chondrocyte
[4] = Induction of chondrogenesis in human MSC assessed as maximum activity at 10 nM incubated for 6 days by rhodamine B and Nile red staining based imaging analysis relative to control; assay type: functional; details: BMMSC, 144 h, time 6 day

Row | EC50 [1] | EC50 [2] | EC50 [3] | Compound | Emax at 0.01 µM [4]
1 | 0.0006 µM | 0.002 µM | 3 µM | CC(C)CC(=O)Nc1cncc(-c2cnc3[nH]nc(-c4nc5c(-c6cccc(F)c6)cncc5[nH]4)c3c2)c1 | 
2 | 1.85 µM | 0.021 µM |  | CS(=O)(=O)NCc1cc(F)cc(-c2cncc3[nH]c(-c4n[nH]c5ncc(-c6cncc(CN7CCCCC7)c6)cc45)cc23)c1 | 22.7%
3 | 0.324 µM | 0.017 µM |  | CCCCC(=O)Nc1cncc(-c2ccc3[nH]nc(-c4cc5cccnc5[nH]4)c3c2)c1 | 34.1%
4 | 0.643 µM | 0.008 µM | 0.0008 µM | CCN(C)Cc1cncc(-c2cnc3[nH]nc(-c4nc5c(-c6cccc(F)c6)cncc5[nH]4)c3c2)c1 | 
5 | 1.73 µM | 0.054 µM | 3 µM | CCC1(N)CN(c2cncc(-c3ccc4[nH]nc(C)c4c3)n2)C1 | 
6 | 0.315 µM | 0.001 µM | 3 µM | Cn1cc(-c2cc3c(C(=O)Nc4ccc(OCCN5CCCC5)cc4)n[nH]c3cc2F)cn1 | 
7 | 2.15 µM | 0.033 µM | 1.05 µM | Cc1[nH]nc(C(=O)Nc2ccc(CN3CCCC3)cc2)c1/C=C/c1cccnc1 | 
8 | 1.15 µM | 0.032 µM | 3 µM | Cc1n[nH]c2ccc(-c3cc(OC[C@H](N)Cc4ccccc4)cnn3)cc12 | 
9 | 0.162 µM | 0.01 µM | 0.0001 µM | FC1(F)CCN(Cc2cncc(-c3cnc4[nH]nc(-c5nc6c(-c7ccoc7)nccc6[nH]5)c4c3)c2)C1 | 
10 | > 10 µM | 0.003 µM | 3 µM | O=C(Nc1ccc(N2CCCC2)nc1)c1n[nH]c2ccc(-c3cncc(CN4CCC4)c3)cc12 | 
11 | 1.45 µM | 0.005 µM | 3 µM | COc1ccc(NC(=O)c2n[nH]cc2/C=C/c2cncc(CN3CCCCC3)c2)cn1 | 
12 | > 10 µM | 0.02 µM | 0.0178 µM | Cc1[nH]nc(C(=O)Nc2ccc(OC3CCN(C)CC3)nc2)c1/C=C/c1cccnc1 | 
13 | 1.66 µM | 0.004 µM | 0.0071 µM | O=C(Nc1ccc(CN2CCCC2)cc1)c1n[nH]c2ccc(-c3cnccn3)cc12 | 
14 | 0.477 µM | 0.004 µM | 0.0049 µM | CN1CCC(Oc2ccc(NC(=O)c3n[nH]c4ccc(-c5ccc(N)nc5)cc34)cc2)CC1 | 
15 | 0.196 µM | 0.001 µM | 3 µM | O=C(Nc1ccc(CN2CCCC2)cc1)c1n[nH]c2ccc(-c3cccnc3F)cc12 | 
16 | 0.123 µM | 0.01 µM | 3 µM | COc1cncc(C(=O)Nc2c[nH]nc2C(=O)Nc2ccc(CN(C)C)cc2)c1 | 
17 | 0.0966 µM | 0.006 µM | 0.604 µM | Cc1ccncc1-c1cc2c(-c3nc4c(-c5cc(F)cc(CNS(C)(=O)=O)c5)cncc4[nH]3)n[nH]c2cn1 | 
18 | 0.0656 µM | 0.002 µM | 3 µM | CN1CCC(Nc2cc(C(=O)Nc3cc4cc(-c5cnn(C)c5)ccc4cn3)ccn2)CC1 | 
19 | 1.15 µM | 0.001 µM | 0.0126 µM | CN1CCC(Oc2ncc(NC(=O)c3n[nH]c4cc(F)c(-c5cnn(C)c5)cc34)cc2F)CC1 | 
20 | 1.5 µM | 0.002 µM | 0.0067 µM | O=C(Nc1ccc(N2CC(CO)(CO)C2)nc1)c1n[nH]c2ccc(-c3cncc(CN4CCCCC4)c3)cc12 | 
21 | 0.165 µM | 0.001 µM | 3 µM | CC(C)n1cc(C(=O)Nc2cc3cc(-c4cncc(NC5CCN(C)CC5)n4)ncc3cn2)cn1 | 

Row | EC50 [1] | EC50 [2] | EC50 [3] | Compound | Emax at 0.01 µM [4]
22 | 0.684 µM | 0.016 µM | 0.013 µM | O=C(Nc1ccc(OC(F)F)cc1)c1n[nH]c2ccc(-c3cnc4n3CCNC4)cc12 | 
23 | > 10 µM | 0.002 µM | 0.0697 µM | O=C(Nc1cccnc1)c1n[nH]c2ccc(-c3cncc(CN4CC(CO)(CO)C4)c3)cc12 | 
24 | 0.03 µM | 0.001 µM | 0.18 µM | Nc1ncc(NC(=O)c2n[nH]c3ccc(-c4cncc(CN5CCCCC5)c4)cc23)cn1 | 
25 | 0.513 µM | 0.006 µM | 0.0328 µM | CC#CC(=O)Nc1cc2cc(-c3cnn(C)c3)ccc2cn1 | 
26 | 4.57 µM | 0.001 µM | 0.845 µM | Cc1cn(-c2cncc3[nH]c(-c4n[nH]c5ccc(-c6cncc(NC(=O)CC(C)C)c6)cc45)nc23)cn1 | 
27 | 0.62 µM | 0.008 µM | 0.0128 µM | Cc1ncc(-c2ccc3[nH]nc(-c4nc5c(-c6cc(F)cc(NCCN(C)C)c6)ccnc5[nH]4)c3n2)n1C | 
28 | 1.65 µM | 0.001 µM | 0.0002 µM | O=C(Nc1ccc(N2CCNCC2)nc1)c1n[nH]cc1/C=C/c1cccnc1 | 
29 | 0.0348 µM | 0.002 µM | 1.43 µM | CC(C)n1cc(C(=O)Nc2cc3cc(-c4cncn4C)ccc3cn2)cn1 | 
30 | 0.43 µM | 0.002 µM | 3 µM | O=C(Nc1cnccn1)c1n[nH]c2ccc(-c3cncc(CN4CCCCCC4)c3)cc12 | 
31 | 3.51 µM | 0.063 µM | 1.61 µM | Cc1n[nH]c2ccc(-c3cncc(N4CC(C)(N)C4)n3)cc12 | 
32 | > 10 µM | 0.005 µM | 1.71 µM | Fc1cccc(-c2cncc3[nH]c(-c4n[nH]c5cnc(-c6cncc(OC7CCNCC7)c6)cc45)nc23)c1 | 
33 | 0.0966 µM | 0.001 µM | 3 µM | COc1ccc(NC(=O)c2n[nH]c3ccc(-c4cncc(CO)c4)cc23)cn1 | 
34 | 1.43 µM | 0.05 µM | 3 µM | Cc1n[nH]c2ccc(-c3cncc(N4CCC[C@H](N)C4)n3)cc12 | 
35 | 2.13 µM | 0.01 µM | 0.0024 µM | CCNCc1cncc(-c2ccc3[nH]nc(-c4nc5c(-c6ccccn6)nccc5[nH]4)c3c2)c1 | 
36 | 0.795 µM | 0.006 µM | 0.0022 µM | O=C(Nc1cccnc1)c1n[nH]c2ncc(-c3cccnc3)cc12 | 
37 | 0.558 µM | 0.008 µM | 3 µM | COc1cncc(C(=O)Nc2c[nH]nc2C(=O)Nc2ccc3c(c2)CCN(C)C3)c1 | 
38 | 0.027 µM | 0.001 µM | 0.0055 µM | CS(=O)(=O)c1ccc(NC(=O)c2n[nH]c3ccc(-c4cncc(CN5CCCCC5)c4)cc23)cn1 | 
39 | 0.5 µM | 0.004 µM | 0.303 µM | O=C(Nc1ccc(OC(CO)CO)nc1)c1n[nH]c2ccc(-c3cncc(CN4CCCCC4)c3)cc12 | 
40 | 0.12 µM | 0.001 µM | 1.08 µM | CN1CCC(Oc2ccc(NC(=O)c3n[nH]c4cc(F)c(-c5cnn(C)c5)cc34)cn2)CC1 | 
41 | 0.0133 µM | 0.003 µM | 0.0401 µM | CN1CCC(n2cc(C(=O)Nc3cc4cc(-c5cncc6[nH]ccc56)ccc4cn3)cn2)CC1 | 
42 | 1.85 µM | 0.004 µM | 3 µM | O=C(Nc1ccc(OCCN2CCCC2)cc1)c1n[nH]cc1/C=C/c1cccnc1 | 

Row | EC50 [1] | EC50 [2] | EC50 [3] | Compound | Emax at 0.01 µM [4]
43 | 1.9 µM | 0.022 µM | 0.0478 µM | Cc1n[nH]c2ccc(-c3cncc(N4CCC(O)CC4)n3)cc12 | 
44 | 0.095 µM | 0.003 µM | 3 µM | Cc1ncc(NC(=O)c2n[nH]c3ccc(-c4cnn(C5CCN(C)CC5)c4)cc23)s1 | 
45 | 0.793 µM | 0.002 µM | 1.2 µM | Cn1cc(-c2cc3c(C(=O)Nc4ccc5c(c4)CNC5)n[nH]c3cc2F)cn1 | 
46 | 2.81 µM | 0.056 µM | 3 µM | Cc1n[nH]c2ccc(-c3cncc(OC[C@@H]4Cc5ccccc5CN4)n3)cc12 | 
47 | > 10 µM | 0.01 µM | 3 µM | O=C(CC1CCNCC1)Nc1cncc(-c2ccc3[nH]nc(-c4nc5c(-c6ccsc6)nccc5[nH]4)c3n2)c1 | 
48 | 0.107 µM |  | 0.0087 µM | Cc1ncc(C(=O)Nc2cc3nc(-c4cnc(C)n4C)ccc3cn2)s1 | 
49 | 0.849 µM | 0.004 µM | 0.138 µM | O=C(Nc1cccnc1)c1n[nH]c2cnc(-c3cncc(CN4CCCCC4)c3)cc12 | 
50 | 0.102 µM | 0.001 µM | 3 µM | Cc1ncc(C(=O)Nc2cc3cc(-c4cnc(C)n4C)ccc3cn2)s1 | 
51 | 0.0545 µM |  | 0.0881 µM | CC(C)OC(=O)N1CCC(n2cc(C(=O)Nc3cc4cc(-c5cnn(C)c5)ccc4cn3)cn2)CC1 | 
52 | 0.375 µM | 0.006 µM | 1.92 µM | O=C(Nc1cc2cc(-c3cnn4c3CCNC4)ccc2cn1)c1ccc(OC(F)F)cc1 | 
53 | 0.594 µM | 0.003 µM | 3 µM | Cn1ncc(-c2ccc3cnc(NC(=O)[C@H]4CC[C@H](CO)CC4)cc3c2)c1CN1CCCCC1 | 
54 | 0.102 µM |  | 3 µM | CN1CCN(c2cc(C(=O)Nc3cc4nc(-c5cnn(C)c5)ccc4cn3)ccn2)CC1 | 
55 | 3.25 µM | 0.025 µM | 0.035 µM | Cc1n[nH]c2ccc(-c3cncc(OCC4(F)CNC4)n3)cc12 | 
56 | 0.447 µM |  | 3 µM | Cn1cc(-c2ccc3cnc(NC(=O)c4ccc5nccnc5c4)cc3n2)cn1 | 
57 | 1.89 µM |  | 0.0715 µM | Cc1nnc(C(=O)Nc2cc3cc(-c4cncn4C)ccc3cn2)s1 | 
58 | 0.645 µM | 0.003 µM | 0.0442 µM | Cc1cc(-c2ccc3[nH]nc(C(=O)Nc4ccc(OC5CCN(C)CC5)cc4)c3c2)sn1 | 
59 | 0.964 µM | 0.001 µM | 3 µM | CN1CCC(Oc2ccc(NC(=O)c3n[nH]cc3/C=C/c3cccnc3)cn2)CC1 | 
60 | 2.4 µM | 0.001 µM | 2.74 µM | CC(C)NC(=O)c1n[nH]c2ccc(-c3cncc(NC4CCNCC4)n3)cc12 | 
61 | 1.31 µM |  | 0.307 µM | O=C(Nc1ccc(CN2CCCC2)cc1)c1n[nH]c2ccc(-c3cncnc3)cc12 | 
62 | > 10 µM | 0.006 µM | 0.0019 µM | O=C(Nc1cncc(-c2ccc3[nH]nc(-c4nc5c(-c6cccnc6)cncc5[nH]4)c3c2)c1)c1ccccc1 | 
63 | 2.21 µM | 0.006 µM | 0.0187 µM | Cc1ncc(-c2ccc3cnc(NC(=O)C4(F)CC4)cc3c2)n1C | 
